{"source": "patent US10676452B2", "about": "“Compound for the prophylaxis or treatment of organ damage” (Sulfateq B.V., priority 2015, dated 2020)", "key": {"[1]": {"experiment": "Solubility of SUL121 in 50% DMSO in saline solution", "assay_type": "physicochemical", "details": "aqueous with cosolvent or surfactant or cyclodextrin, kinetic from dmso stock, read-out: solubility in 50% DMSO (completely soluble up to)", "description": "(§1) Cell culture grade DMSO was obtained from Sigma-Aldrich (Zwijndrecht, the Netherlands). 0.9% sterile saline solutions were from Baxter (Utrecht, the Netherlands). (6-hydroxy-2,5,7,8-tetramethylchroman-2-yl)(piperazin-1-yl)methanone (SUL121) was supplied by Sulfateq BV, Groningen, the Netherlands supplied in a formulation of 500 mM in 100% DMSO corresponding to 177 g/l. Osmotic minipumps (Alzet, USA) are resistant to DMSO concentrations≤50%. Therefore, the solubility of SUL121 was tested in 50% DMSO in saline solution. SUL121 was completely soluble in 50% DMSO up to a concentration of 12.6 g/1. Alzet model 2004 pumps were loaded with 200 μl of 12.6 g/1 SUL121 solution or with 200 ul 50% DMSO solution (vehicle). According to pump specifications 6 μl of SUL121 was administered per day, resulting in a daily dose of 2.2 mg/kg/day for a 35 gram mouse."}, "[2]": {"tested_on": "db/db mice", "experiment": "Metabolic data (body weight, water intake, urine output, non-fasting blood glucose) in db/db mouse Type 2 diabetes model", "assay_type": "in vivo", "text": "Given its effectiveness in the model of renal ischemia and reperfusion, it was hypothesized that compound SUL 121 will also protect the kidney in an experimental model of obesity induced Type 2 diabetes (T2DM). Therefore, the effects of SUL121 on the development of albuminuria and renal damage in the mouse Type 2 diabetes model was studied. For the study, the db/db mouse model was employed. […] Diabetes starts at the age of 6-8 weeks and adequate levels of kidney damage and albuminuria can be observed at the age of 18 weeks.\nTo study the effects of SUL121 on the development of diabetes, treatment with SUL121 started from the age of 10 weeks until the age of 18 weeks. In addition, to study the effects of SUL 121 on healthy animals, control mice were treated similarly. A non-treated control group was included in the study, to serve as healthy untreated control. Drug and vehicle were administered by implantation of osmotic minipumps at the age of 10 and 14 weeks.\nas §1\n(§2) Male db/db mice (n=16) and lean heterozygous control animals (n=16) were purchased from Harlan UK (strain JAX000642). All mice were housed individually. Water and food were given ad-libitum. Four groups of mice were investigated: • 1) db/db+vehicle (diabetic control) • 2) db/db+Sul121 (treated diabetic group) • 3) wt+vehicle (non-diabetic control) • 4) wt+Sul121 (to study effect of drug only) Drug and vehicle were administered by implantation of osmotic minipumps at the age of 10 (t=0) and 14 weeks (t=4). Metabolic cages and blood pressure measurements were performed every two weeks. Blood samples could not be obtained by cheek puncture, therefore blood was collected from the retro orbital plexus at the age of 10 (t=0) and 12 weeks (t=2). At the age of 18 weeks (t=8) all animals were terminated and blood was collected by cardiac puncture. Urinary Measurements\n(§3) Urinary glucose concentrations were measured by the glucose oxidase method with a specific electrode from 24-h urine collections after the samples were stored in −20° C. The urinary creatinine concentration was measured by standard laboratory methods (Jaffe method without deproteinization, DiaSys Diagnostic Systems, Holzheim, Germany). The median values of the 24-h urine collections and of the albumin-to-creatinine ratio were calculated. In addition, mouse albumin levels in urine were determined manually using a mouse albumin Elisa kit (Abcam, Cambridge, UK). Urinary hydrogen peroxide levels were determined using an Amplex Red H2O2 assay kit (Life technologies, Leusden, the Netherlands)."}, "[3]": {"tested_on": "db/db mice", "experiment": "Arterial blood pressure by tail-cuff method", "assay_type": "in vivo, mouse", "description": "as §2\nArterial blood pressure was measured in anaesthetized mice (2% isoflurane) by means of the tail-cuff method (PS-200A; Riken-Kaihatsu; Tokyo, Japan). For each animal, blood pressure values represent the mean of three to ten recordings obtained in a single session."}, "[4]": {"tested_on": "db/db mice", "experiment": "Organ (kidney) weights at termination", "assay_type": "in vivo, mouse", "details": "diabetic mice, after 8 weeks of treatment", "description": "as §2\nAfter 8 weeks of treatment, mice were terminated and organ weights were measured (FIG. 2). […] SUL 121 treatment normalized kidney weights to non-diabetic control values."}, "[5]": {"tested_on": "db/db mice", "experiment": "Urinary albumin excretion and albumin/creatinine ratio", "assay_type": "in vivo, mouse", "description": "as §2, §3\nTo test whether SUL 121 treatment could reduce renal damage, albumin leakage into the urine was measured at all time points for diabetic animals. Total albumin excretion per day (AER) was calculated by multiplying urinary albumin concentration with daily urinary output (FIG. 3A)."}, "[6]": {"tested_on": "db/db mice", "experiment": "Renal histology: PAS staining, focal glomerulosclerosis (FGS) score", "assay_type": "in vivo, mouse", "details": "diabetic mice", "text": "Four-micrometer-thick formalin fixed sections were deparaffinized and stained for periodic acid-Schiff (PAS) for quantification of focal glomerulosclerosis (FGS) and tubular injury. FGS was semiquantitatively scored in a blinded fashion by determining the level of mesangial expansion and focal adhesion in each quadrant in a glomerulus and expressed on a scale from 0 to 4. If 25% of the glomerulus was affected, it was scored as 1, 50% as 2, 75% as 3, and 100% as 4. In total, 50 glomeruli per kidney were analyzed, and the total FGS score was calculated by multiplying the score by the percentage of glomeruli with the same FGS score. Thus the total FGS score ranged from 0 to 200."}, "[7]": {"tested_on": "mouse aortic rings", "experiment": "Organ bath experiments with the isolated aorta of treated mice (ACh relaxation after PE precontraction)", "assay_type": "in vivo", "details": "for max. relaxation to ACh (remaining % of PE preconstriction): aortic rings", "description": "Freshly isolated thoracic aortic rings (1.5-2 mm in length) were mounted on 200-μm stainless wires in individual myograph baths (Danish Myo Technology, Aarhus, Denmark). Briefly, baths containing 6 ml Krebs solution were warmed to 37° C. and preequilibrated and continuously aerated with 95% O2-5% CO2 to maintain pH at 7.4. The length of the aortic strips was assessed by microscopy. Aortic rings were equilibrated for 40 min until they were at a steady baseline. Rings were then primed and checked for viability by two consecutive stimulations with KCl (60 mM) followed by washings and renewed stabilization to obtain reproducible contractile responses.\nContraction responses were measured as cumulative concentration-response curves to phenylephrine (PE; 10 nM-100 μM) followed by a single concentration of KCl (90 mM). Endothelium-dependent relaxation was assessed by obtaining concentration-response curves to ACh (10 nM-300 μM) in rings precontracted with PE (1 μM) followed by stimulation with a high concentration of the NO donor sodium nitroprusside (SNP; 0.1 mM) to assess maximal endothelium-independent dilation.\nTo study the role of the endothelium in vasoconstrictor effects, rings were denuded by removing the endothelial cell layer by rubbing the luminal side of the vessel with a moistened wire. To examine the contribution of different EDRFs in modulating vasoconstrictor responses and mediating endothelium-dependent relaxation, inhibitors of PG and NO synthesis were used. To this end, PG components were assessed by preincubating rings (20 min.) with the nonspecific cyclooxygenase inhibitor indomethacin (10 μM). The NO component was examined by subsequent incubation with both NO synthesis inhibitor NG-monomethyl-L-arginine (L-NMMA; 1 μM) and indomethacin. The remaining ACh-mediated relaxation was attributed to an unidentified EDHF.\nContractions to KCl and PE are given in milliNewtons. Relaxation responses to ACh and SNP are expressed as percentages of the preconstriction with PE. In addition to that, the area under each individual curve (AUC; in arbitrary units) was determined for ACh-induced relaxation (SigmaPlot version 10.0, Systat Software, San Jose, Calif.). The AUC was used to present total endothelium-dependent relaxation and for the subsequent analysis of differences in ACh-mediated relaxation with and without inhibitors present to estimate the contribution of the different EDRFs, i.e., PGs for the part sensitive to cycloxygenase inhibition with indomethacin, NO for the part sensitive to NOS inhibition with L-NMMA, and EDHF by means of exclusion of PG and NO (34)."}, "[8]": {"tested_on": "db/db mice", "experiment": "Plasma hydrogen peroxide (ROS production in diabetes)", "assay_type": "in vivo, mouse", "details": "diabetic mice", "description": "as §3\nEnhanced reactive oxygen species (ROS) production is a well-established phenomenon in diabetes. To study the effects of SUL121 treatment on ROS production, hydrogen peroxide, a stable metabolite of ROS, was measured in plasma (FIG. 6). SUL 121 treatment normalized H2O2 levels in plasma."}, "[9]": {"tested_on": "mouse renal mesangial cells", "experiment": "In-vitro model of diabetes: intracellular ROS under high glucose and insulin", "assay_type": "cell-based", "text": "To further explore the mechanisms through which SUL 121 mediates renal protection in diabetes, an in-vitro model of diabetes was employed. For this, mouse renal mesangial cells were exposed to conditions simulating type 2 diabetes (high glucose and insulin). Exposure to high glucose/insulin increased intracellular ROS levels by approximately 70% (FIG. 7)."}, "[10]": {"tested_on": "rat kidney", "details": "blood flow stopped and restored; cited from earlier work"}}, "note": "Entries after “also recorded” stand apart in the source; their conditions may differ."}
{"smiles": "Cc1c(C)c2c(c(C)c1O)CCC(C)(C(=O)N1CCNCC1)O2", "note": "(stereo not shown) [SUL121, (6-hydroxy-2,5,7,8-tetramethylchroman-2-yl)(piperazin-1-yl)methanone]", "values": [{"measurement": "solubility", "setting": "[1]", "result": "≥ 12.6", "unit": "mg/mL"}, {"measurement": "effect on urine output and water intake", "setting": "[2]; all time points other than week 8", "result": "did not significantly affect"}, {"measurement": "effect on blood glucose levels", "setting": "[2]; diabetic db/db mice", "result": "did not affect"}, {"measurement": "non-fasting blood glucose level", "setting": "[2]; diabetic db/db mice, end of the experiment", "result": "35.3 ± 1.1", "unit": "mM"}, {"measurement": "non-fasting blood glucose level", "setting": "[2]; diabetic db/db mice, start of the experiment", "result": "27.2 ± 1.3", "unit": "mM"}, {"measurement": "urine output", "setting": "[2]; diabetic db/db mice, week 8", "result": "11.2 ± 3.8", "unit": "g"}, {"measurement": "water intake", "setting": "[2]; diabetic db/db mice, week 8", "result": "10.9 ± 3.9", "unit": "g"}, {"measurement": "effect on blood pressure", "setting": "[3]; diabetic mice", "result": "did not affect"}, {"measurement": "effect on blood pressure", "setting": "[3]; non-diabetic wild type mice, week 2", "result": "lowered"}, {"measurement": "effect on blood pressure", "setting": "[3]; week 6", "result": "did not affect"}, {"measurement": "effect on kidney weights (kidney hypertrophy)", "setting": "[4]", "result": "normalized"}, {"measurement": "effect on total albumin excretion per day (AER)", "setting": "[5]; diabetic animals, weeks 6 and 8", "result": "prevented the progression"}, {"measurement": "albumin/creatinine ratio (ACR)", "setting": "[5]; diabetic mice, week 6", "result": "534 ± 79", "unit": "µg/mg"}, {"measurement": "albumin/creatinine ratio (ACR)", "setting": "[5]; diabetic mice, week 8 (not statistically significant vs diabetic control)", "result": "866 ± 91", "unit": "µg/mg"}, {"measurement": "effect on AER", "setting": "[5]; non-diabetic animals", "result": "did not affect"}, {"measurement": "total albumin excretion per day (AER)", "setting": "[5]; non-diabetic animals, week 8", "result": "31.3 ± 4.6", "unit": "µg/day"}, {"measurement": "albumin/creatinine ratio (ACR)", "setting": "[5]; wild type animals, week 8", "result": "55 ± 6", "unit": "µg/mg"}, {"measurement": "effect on focal glomerular sclerosis (FGS) scores", "setting": "[6]", "result": "significantly reduced"}, {"measurement": "effect on focal glomerular sclerosis (FGS) scores", "setting": "[6]; listed as SUL 121", "result": "significantly lowered"}, {"measurement": "effect on NO and prostaglandin components of relaxation", "setting": "[7]; diabetic animals", "result": "non-significant (p=0.06) increase"}, {"measurement": "effect on EDHF component of total relaxation", "setting": "[7]; diabetic animals, with L-NMMA and indomethacin", "result": "significantly increasing"}, {"measurement": "effect on endothelium mediated relaxation", "setting": "[7]; diabetic mice", "result": "restores"}, {"measurement": "max. relaxation to ACh (remaining % of PE preconstriction)", "setting": "[7]; treated diabetic group", "result": "11.3±2.3", "unit": "%"}, {"measurement": "max. relaxation to ACh (remaining % of PE preconstriction)", "setting": "[7]; treated non-diabetic controls", "result": "9.2±1.6", "unit": "%"}, {"measurement": "effect on plasma H2O2 levels", "setting": "[8]", "result": "normalized"}, {"measurement": "effect on high glucose/insulin induced increase of intracellular ROS", "setting": "[9]; cells pretreated, high glucose and insulin", "result": "substantially inhibited; also recorded: normalized"}, {"measurement": "effect on intracellular ROS production, compound alone", "setting": "[9]; without high glucose/insulin", "result": "did not affect"}, {"measurement": "reduction of ischemia and reperfusion damage", "setting": "[10]", "result": "very effective"}]}
